{"source": "patent US20080033045A1", "about": "“TREATMENT OF PSYCHIATRIC DISORDERS” (Myriad Genetics, Incorporated, priority 2006, published 2008)", "tested_on": "Alzheimer's disease patients", "test": "Clinical trial in Alzheimer's disease patients, analysis of psychiatric disorder events (MedDRA adverse events)", "format": "in vivo, human", "procedure": "A clinical trial with (R)-2-(2-fluoro-4-biphenylyl)propionic acid (USAN name of tarneflurbil) was conducted according to the method disclosed in U.S. patent application Ser. No. 10/889,971, filed Jul. 12, 2004, (US publication no. 20050042284) which is expressly incorporated herein by reference in its entirety. In this clinical trial, Alzheimer's disease patients were treated with placebo, 400 mg tarenflurbil twice daily, or 800 mg tarenflurbil twice daily for one year. Analysis of the psychiatric disorder events yielded the following results.", "key": {"[1]": {"settings": "400 mg BID for one year, N = 40"}, "[2]": {"settings": "800 mg BID for one year, N = 50"}}, "data": [{"compound": "C[C@@H](C(=O)O)c1ccc(-c2ccccc2)c(F)c1", "note": "[tarenflurbil, (R)-2-(2-fluoro-4-biphenylyl)propionic acid]", "values": [{"measurement": "Abnormal behaviour, number", "setting": "[1]", "result": 0}, {"measurement": "Abnormal dreams, number", "setting": "[1]", "result": 0}, {"measurement": "Aggression, number", "setting": "[1]", "result": 0}, {"measurement": "Agitation, number", "setting": "[1]", "result": 2}, {"measurement": "Agitation, percent of N", "setting": "[1]", "result": "(5%)"}, {"measurement": "Anger, number", "setting": "[1]", "result": 1}, {"measurement": "Anger, percent of N", "setting": "[1]", "result": "(2.5%)"}, {"measurement": "Anxiety, number", "setting": "[1]", "result": 2}, {"measurement": "Anxiety, percent of N", "setting": "[1]", "result": "(5%)"}, {"measurement": "Apathy, number", "setting": "[1]", "result": 0}, {"measurement": "Confusional state, number", "setting": "[1]", "result": 4}, {"measurement": "Confusional state, percent of N", "setting": "[1]", "result": "(10%)"}, {"measurement": "Delusion, number", "setting": "[1]", "result": 1}, {"measurement": "Delusion, percent of N", "setting": "[1]", "result": "(2.5%)"}, {"measurement": "Depression, number", "setting": "[1]", "result": 1}, {"measurement": "Depression, percent of N", "setting": "[1]", "result": "(2.5%)"}, {"measurement": "Hallucination, number", "setting": "[1]", "result": 0}, {"measurement": "Hallucination, visual, number", "setting": "[1]", "result": 1}, {"measurement": "Hallucination, visual, percent of N", "setting": "[1]", "result": "(2.5%)"}, {"measurement": "Insomnia, number", "setting": "[1]", "result": 0}, {"measurement": "Libi do increased, number", "setting": "[1]", "result": 1}, {"measurement": "Libi do increased, percent of N", "setting": "[1]", "result": "(2.5%)"}, {"measurement": "Mood altered, number", "setting": "[1]", "result": 0}, {"measurement": "Mood swings, number", "setting": "[1]", "result": 1}, {"measurement": "Mood swings, percent of N", "setting": "[1]", "result": "(2.5%)"}, {"measurement": "Nightmare, number", "setting": "[1]", "result": 0}, {"measurement": "Number of Patients With at Least One Adverse Event (Psychiatric Disorder)", "setting": "[1]", "result": 12}, {"measurement": "Paranoia, number", "setting": "[1]", "result": 1}, {"measurement": "Paranoia, percent of N", "setting": "[1]", "result": "(2.5%)"}, {"measurement": "Patients With at Least One Adverse Event (Psychiatric Disorder), percent of N", "setting": "[1]", "result": "(30%)"}, {"measurement": "Psychotic disorder, number", "setting": "[1]", "result": 1}, {"measurement": "Psychotic disorder, percent of N", "setting": "[1]", "result": "(2.5%)"}, {"measurement": "Sleep disorder, number", "setting": "[1]", "result": 1}, {"measurement": "Sleep disorder, percent of N", "setting": "[1]", "result": "(2.5%)"}, {"measurement": "Total Number of Adverse Events (Psychiatric Disorders, MedDRA)", "setting": "[1]", "result": 17}, {"measurement": "Abnormal behaviour, number", "setting": "[2]", "result": 0}, {"measurement": "Abnormal dreams, number", "setting": "[2]", "result": 0}, {"measurement": "Aggression, number", "setting": "[2]", "result": 0}, {"measurement": "Agitation, number", "setting": "[2]", "result": 1}, {"measurement": "Agitation, percent of N", "setting": "[2]", "result": "(2%)"}, {"measurement": "Anger, number", "setting": "[2]", "result": 0}, {"measurement": "Anxiety, number", "setting": "[2]", "result": 2}, {"measurement": "Anxiety, percent of N", "setting": "[2]", "result": "(4%)"}, {"measurement": "Apathy, number", "setting": "[2]", "result": 0}, {"measurement": "Confusional state, number", "setting": "[2]", "result": 0}, {"measurement": "Delusion, number", "setting": "[2]", "result": 0}, {"measurement": "Depression, number", "setting": "[2]", "result": 4}, {"measurement": "Depression, percent of N", "setting": "[2]", "result": "(8%)"}, {"measurement": "Hallucination, number", "setting": "[2]", "result": 0}, {"measurement": "Hallucination, visual, number", "setting": "[2]", "result": 0}, {"measurement": "Insomnia, number", "setting": "[2]", "result": 1}, {"measurement": "Insomnia, percent of N", "setting": "[2]", "result": "(2%)"}, {"measurement": "Libi do increased, number", "setting": "[2]", "result": 0}, {"measurement": "Mood altered, number", "setting": "[2]", "result": 1}, {"measurement": "Mood altered, percent of N", "setting": "[2]", "result": "(2%)"}, {"measurement": "Mood swings, number", "setting": "[2]", "result": 0}, {"measurement": "Nightmare, number", "setting": "[2]", "result": 1}, {"measurement": "Nightmare, percent of N", "setting": "[2]", "result": "(2%)"}, {"measurement": "Number of Patients With at Least One Adverse Event (Psychiatric Disorder)", "setting": "[2]", "result": 7}, {"measurement": "Paranoia, number", "setting": "[2]", "result": 0}, {"measurement": "Patients With at Least One Adverse Event (Psychiatric Disorder), percent of N", "setting": "[2]", "result": "(14%)"}, {"measurement": "Psychotic disorder, number", "setting": "[2]", "result": 0}, {"measurement": "Sleep disorder, number", "setting": "[2]", "result": 0}, {"measurement": "Total Number of Adverse Events (Psychiatric Disorders, MedDRA)", "setting": "[2]", "result": 10}, {"measurement": "number of psychiatric events (incidence)", "setting": "treatment group, statistical analysis, p=0.02", "result": "reduce the incidence of psychiatric events"}, {"measurement": "time to progression to psychiatric events (onset)", "setting": "treatment group, statistical analysis, p=0011", "result": "delay the onset of"}]}]}
